Among the test systems are A498; CAKI-1; HCT-116; HCT-15; HT-29; IGROV-1; M14; Malme-3M; NCI-H460; NCI-H522; OVCAR-5; SW-620; T47D; UACC-257; UO-31; HOP-62; SNB-75.
Holding throughout (assay): NCI-60 cell line screen, 48 h

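Five compound concentrations were applied to cells in 96-well plates for 48 hours; endpoints were derived by simple linear interpolation of the resulting dose-response curve. GI50 is the concentration that inhibits growth by half.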 Active and inactive are the calls of the source. Cut-off read from the data, not from the text of the source: active = GI50 up to about 1.1 µM and inactive = higher. Where a SMILES comes first, the peptide text is derived from it. The star is where a group is joined. Cbz = O=C(OCc1ccccc1)*; NHNH2 = NN*

`NNC(=O)c1ccc(OCc2nc3ccccc3[nH]2)cc1`: the GI50 in the experiment on A498 was > 100 µM (inactive); in the experiment on CAKI-1, > 100 µM (inactive); in the experiment on HCT-116, 29.1 µM (inactive); in the experiment with HCT-15, greater than 100 µM; in the experiment with HT-29, > 100 µM (inactive); in the experiment on IGROV-1 it was > 100 µM (inactive). In addition, the GI50 was 53.1 µM (inactive) in the experiment with M14; > 100 µM (inactive) in the experiment on Malme-3M; 31.8 µM (inactive) in the experiment with NCI-H460; 30 µM (inactive) in the experiment on NCI-H522; > 100 µM (inactive) in the experiment on OVCAR-5; > 100 µM (inactive) in the experiment on SW-620. The GI50 with T47D is 53.7 µM (inactive); in the experiment with UACC-257 it was 66.4 µM (inactive); with UO-31, 48.5 µM (inactive).
Consider `O=C1NN=C2C=C(c3ccc(Cl)cc3)CC(c3cccc(Cl)c3)C12` (stereo not drawn), for which the GI50 is 34.8 µM (inactive) in the experiment with CAKI-1; 18.5 µM (inactive) in the experiment with HCT-116; 13.9 µM in the experiment with HCT-15; 34.4 µM (inactive) with HOP-62; 21.9 µM (inactive) in the experiment on HT-29; 19.6 µM (inactive) in the experiment with IGROV-1. Moreover, the GI50 with M14 is 38.3 µM (inactive); in the experiment with Malme-3M, 37.2 µM (inactive); in the experiment on NCI-H460, 19 µM (inactive); in the experiment on NCI-H522 it was 15.8 µM (inactive); in the experiment on OVCAR-5, 26.5 µM (inactive); with SW-620 it was 27.9 µM (inactive). The GI50 with T47D was 60.7 µM (inactive); in the experiment with UACC-257, 17.9 µM (inactive); in the experiment on UO-31 it was 19.3 µM (inactive).
Take `Clc1ccc(-c2nn3c(-c4ccncc4)nnc3s2)cc1`: the GI50 with CAKI-1 is > 100 µM (inactive); in the experiment on HCT-116, > 100 µM (inactive); with HCT-15 it was 16.4 µM; with HOP-62, 20.8 µM (inactive); in the experiment on HT-29, > 100 µM (inactive); in the experiment with IGROV-1 it was 64.4 µM (inactive). For the same compound, the GI50 in the experiment on M14, with Malme-3M, in the experiment on NCI-H460, in the experiment with NCI-H522, in the experiment on OVCAR-5 and in the experiment on SW-620 was > 100 µM (inactive) in each case. For the same compound, the GI50 with T47D, with UACC-257 and in the experiment with UO-31 was > 100 µM (inactive) each time.
Consider `OCC1OC(n2nc(-c3ccccc3)nc2-c2cnccn2)C(O)C(O)C1O` (stereo not drawn), for which the GI50 was > 100 µM (inactive) in the experiment on HCT-116; greater than 100 µM in the experiment with HCT-15; > 100 µM (inactive) with HOP-62; > 100 µM (inactive) in the experiment with HT-29; > 100 µM (inactive) in the experiment with IGROV-1; > 100 µM (inactive) in the experiment on M14. For the same compound, the GI50 in the experiment on NCI-H460, in the experiment with NCI-H522, with OVCAR-5, in the experiment on SNB-75, in the experiment with SW-620 and in the experiment with T47D was > 100 µM (inactive) each time. The GI50 in the experiment on UACC-257 and in the experiment on UO-31 was > 100 µM (inactive) throughout.
Turning to `COc1ccc(C2NC(N)=C(C#N)C3=C2C(C)CCC3)cc1OC` (stereo not drawn), the GI50 with CAKI-1 is > 100 µM (inactive); in the experiment on HCT-116, > 100 µM (inactive); in the experiment on HCT-15 it was 44.3 µM; in the experiment with HOP-62 it was 15.9 µM (inactive); in the experiment on HT-29, 40 µM (inactive); with IGROV-1, 15.5 µM (inactive). The GI50 in the experiment on M14 is 59.2 µM (inactive); in the experiment with Malme-3M, 28.6 µM (inactive); in the experiment on OVCAR-5, > 100 µM (inactive); with SNB-75, 1.44 µM (inactive); with SW-620, > 100 µM (inactive); with T47D it was 2.96 µM (inactive). For the same compound, the GI50 in the experiment on UACC-257 is 43.5 µM (inactive); in the experiment with UO-31, 4.65 µM (inactive).
With `CCCCn1c(C)c(C(=O)CC)c(C(=O)NCCN2CCN(c3ccccc3Cl)CC2)c1C`, the GI50 was 17.5 µM (inactive) in the experiment with A498; 16.5 µM (inactive) in the experiment with CAKI-1; 14.3 µM (inactive) in the experiment with HCT-116; 15.7 µM in the experiment with HCT-15; 20.2 µM (inactive) with HOP-62; 13.4 µM (inactive) in the experiment on HT-29. Besides, the GI50 with IGROV-1 is 16.7 µM (inactive); in the experiment on M14, 17.6 µM (inactive); in the experiment on Malme-3M it was 18.1 µM (inactive); in the experiment with NCI-H460 it was 15.3 µM (inactive); in the experiment on NCI-H522, 17.4 µM (inactive); with OVCAR-5 it was 17.5 µM (inactive). Besides, the GI50 is 47.1 µM (inactive) with SW-620, 21.8 µM (inactive) in the experiment on T47D, 13.4 µM (inactive) with UACC-257 and 12.8 µM (inactive) in the experiment with UO-31.
In the case of `CC(C)C(=O)OCC1OC(n2c(Br)nc3c(=O)[nH]c(N)nc32)C(OC(=O)C(C)C)C1OC(=O)C(C)C` (stereo not drawn), the GI50 was 30.1 µM (inactive) in the experiment with HCT-116; greater than 100 µM in the experiment on HCT-15; > 100 µM (inactive) with HOP-62; 17.8 µM (inactive) in the experiment with HT-29; > 10 µM (inactive) in the experiment on IGROV-1; > 100 µM (inactive) with M14. Besides, the GI50 is > 100 µM (inactive) with Malme-3M; 23.7 µM (inactive) with NCI-H460; 35.2 µM (inactive) with NCI-H522; 75.2 µM (inactive) in the experiment on OVCAR-5; 83.9 µM (inactive) in the experiment with SNB-75; 29.2 µM (inactive) in the experiment on SW-620. Also, the GI50 with T47D was 54.8 µM (inactive); in the experiment on UACC-257, > 100 µM (inactive); in the experiment on UO-31 it was > 100 µM (inactive).
Turning to `COc1ccc(C2=C(OC(=O)N(C)C)c3cccn3-c3cc(Cl)ccc3S2)cc1`, the GI50 with CAKI-1 was > 10 µM (inactive); with HCT-15 it was greater than 10 µM; with HOP-62 it was > 10 µM (inactive); in the experiment with HT-29, > 10 µM (inactive); in the experiment with IGROV-1, > 10 µM (inactive); with M14 it was > 10 µM (inactive). In addition, the GI50 with Malme-3M was > 10 µM (inactive); with SNB-75 it was > 10 µM (inactive); in the experiment on SW-620, > 10 µM (inactive); with T47D it was 5.3 µM (inactive); in the experiment on UACC-257, > 10 µM (inactive).
As to `CC(=O)C1(C(=O)C(=[N+]=[N-])S(=O)(=O)c2ccccc2)CC1`, the GI50 with HCT-116 is > 100 µM (inactive); in the experiment on HCT-15 it was greater than 100 µM; with HOP-62, > 100 µM (inactive); with HT-29, > 100 µM (inactive); in the experiment with IGROV-1 it was > 100 µM (inactive); in the experiment on M14, > 100 µM (inactive). The GI50 with Malme-3M, with NCI-H460, in the experiment on NCI-H522, in the experiment on OVCAR-5, in the experiment with SNB-75 and in the experiment on SW-620 was > 100 µM (inactive) throughout. The GI50 in the experiment on UACC-257 and with UO-31 was > 100 µM (inactive) each time.
Regarding `O=C(OCCN=c1c2ccccc2ccc2ccccc12)c1cc([N+](=O)[O-])cc([N+](=O)[O-])c1`, the GI50 is > 100 µM (inactive) in the experiment on CAKI-1; > 100 µM (inactive) in the experiment with HCT-116; greater than 100 µM in the experiment with HCT-15; > 100 µM (inactive) in the experiment with HOP-62; > 100 µM (inactive) with HT-29; > 100 µM (inactive) with IGROV-1. The GI50 in the experiment with M14 is > 100 µM (inactive); with Malme-3M, 21.5 µM (inactive); in the experiment with NCI-H460, > 100 µM (inactive); in the experiment with OVCAR-5 it was > 100 µM (inactive); with SNB-75, > 100 µM (inactive); with SW-620, > 100 µM (inactive). In addition, the GI50 with T47D, with UACC-257 and in the experiment on UO-31 was > 100 µM (inactive) throughout.
`CCOC(=O)CCC(NC(=O)OCc1ccccc1)C(=O)NC(CCC(=O)OCC)C(=O)NN` (stereo not drawn) (Cbz-Glu(OEt)-Glu(OEt)-NHNH2; configuration not given here): the GI50 was > 100 µM (inactive) in the experiment with A498; > 100 µM (inactive) in the experiment with HCT-116; greater than 100 µM in the experiment with HCT-15; > 100 µM (inactive) with HOP-62; > 100 µM (inactive) in the experiment with HT-29; > 100 µM (inactive) with IGROV-1. Moreover, the GI50 in the experiment on M14, in the experiment with Malme-3M, with NCI-H460, with OVCAR-5, in the experiment with SNB-75 and in the experiment with SW-620 was > 100 µM (inactive) each time. Besides, the GI50 with UACC-257 and with UO-31 was > 100 µM (inactive) each time.
Regarding `CC(C)CNC(=O)Cn1c2c(c3ccccc31)CCCC2`, the GI50 is 22.2 µM (inactive) in the experiment with A498; 79.3 µM (inactive) in the experiment with CAKI-1; 27.8 µM (inactive) in the experiment with HCT-116; greater than 100 µM in the experiment with HCT-15; 54.3 µM (inactive) in the experiment on HOP-62; > 100 µM (inactive) in the experiment on HT-29. The GI50 with IGROV-1 was 14.9 µM (inactive); in the experiment with M14, > 100 µM (inactive); in the experiment on Malme-3M, 82.4 µM (inactive); in the experiment with NCI-H460 it was 64.1 µM (inactive); with OVCAR-5, > 100 µM (inactive); in the experiment with SW-620, > 100 µM (inactive). The GI50 with UACC-257 is > 100 µM (inactive); in the experiment with UO-31 it was 28.3 µM (inactive).
As to `C=C(C)C(O)C(O)C[C@@H](C)C1CC[C@]23C[C@]12CCC1[C@@]2(C)CCC(OC(C)=O)C(C)(C)C2CC(OC2OC(CO)C(O)C(O)C2O)[C@]13C` (stereo partly drawn), the GI50 was > 100 µM (inactive) in the experiment with CAKI-1; 15.9 µM (inactive) in the experiment with HCT-116; 40.9 µM with HCT-15; 16.7 µM (inactive) in the experiment with HOP-62; 18.2 µM (inactive) with HT-29; 15.3 µM (inactive) in the experiment on IGROV-1. Further, the GI50 was 15.2 µM (inactive) in the experiment with M14; 17.5 µM (inactive) in the experiment with Malme-3M; 17.9 µM (inactive) in the experiment with NCI-H460; 17 µM (inactive) in the experiment with NCI-H522; 20.9 µM (inactive) in the experiment on OVCAR-5; 19.6 µM (inactive) in the experiment on SNB-75. Also, the GI50 with SW-620 is 16.7 µM (inactive); in the experiment on T47D it was 17.4 µM (inactive); in the experiment on UACC-257, 17 µM (inactive); with UO-31 it was > 100 µM (inactive).

The values are drawn from ChEMBL document CHEMBL1201862, “PubChem BioAssay data set” (2004).
